Experimental data from patent publication US20230181582A1, “COMPOSITIONS AND METHODS FOR TREATING LUNG INJURIES ASSOCIATED WITH VIRAL INFECTIONS” (Qx Therapeutics Inc., priority 2020, published 2023).

Assays:
MAP3K2/MAP3K3 [1] = details: cited from earlier work; for inhibition of MAP3K2/MAP3K3-mediated phosphorylation of p47phox: substrate p47phox
mouse ALI models [2] = format: in vivo
[3] = tested on: mouse coronavirus (MHV-1) induced acute lung injury model; assay: Pulmonary permeability (FITC-albumin in BAL) in mouse coronavirus (MHV-1) induced acute lung injury model; format: in vivo, A/J mice
[4] = tested on: mouse coronavirus (MHV-1) induced acute lung injury model; assay: Survival and body weight loss in mouse coronavirus (MHV-1) induced acute lung injury model; format: in vivo, A/J mice; details: 3 mg/kgbw once daily for 5 days since 24 hr after virus inoculation
[5] = reported; cited from earlier work
patients = details: cited from earlier work
MAP3K2/MAP3K3 [6] = assay: Inhibition of MAP3K2/MAP3K3-mediated phosphorylation of substrates (p47phox, MEK5); format: biochemical
neutrophils = details: cited from earlier work
[7] = reported; cited from earlier work; remark: listed apart in the source
mouse ALI models [8] = details: cited from earlier work

For `Cc1ccc(NC(=O)c2ccc(CN3CCN(C)CC3)cc2)cc1Nc1nccc(-c2cccnc2)n1` [imatinib], the “inhibition of MAP3K2/MAP3K3-mediated phosphorylation of p47phox” value (MAP3K2/MAP3K3 [1]) is given as “do not inhibit”.
In the case of `Cc1ccc(Nc2nccc(N(C)c3ccc4c(C)n(C)nc4c3)n2)cc1S(N)(=O)=O` [pazopanib, 5-({4-[(2,3-Dimethyl-2H-indazol-6-yl)methylamino]pyrimidin-2-yl}amino)-2-methylbenzenesulfonamide], the “mortality rate in acid and LPS models” value (mouse ALI models [2]; acid and LPS ALI models) is reported as “impact mortality rate”, the “prophylactic effect on lung injury in acid and LPS models” value (mouse ALI models [2]; acid and LPS ALI models, prophylactic) is reported as “prophylactic effect” and the “ameliorating ALI in the two mouse ALI/ARDS models” value (mouse ALI models [2]; two mouse ALI/ARDS models, dependent on MAP3K2/3 and ROS production) is reported as “effective in ameliorating ALI”. The “inhibition of other substrates of MAP3K2/MAP3K3 such as MEK5” value (MAP3K2/MAP3K3 [1]; substrate MEK5) was “μM levels”, the “inhibition of MAP3K2/MAP3K3-mediated phosphorylation of p47phox” value (MAP3K2/MAP3K3 [1]) was “low nM levels” and the pulmonary permeability ([3]; 2 doses at 3 mg/kgbw retro-orbital (24, 33 hr after 6000 PFU MHV-1), FIG. 2) was “significantly reduce”. For the same compound, the pulmonary permeability ([3]; 3 doses at 3 mg/kgbw retro-orbital (6, 21, 32 hr after 5000 PFU MHV-1), FIG. 1) was “significantly reduce”, the pulmonary permeability ([3]; one dose 3 mg/kgbw at 24 hr after virus inoculation, FIG. 3) was “significantly reduce” and the pulmonary permeability ([3]; one dose 3 mg/kgbw at 48 hr after virus inoculation, FIG. 4) was “significantly reduce”. The pulmonary permeability ([3]; one dose 3 mg/kgbw at 72 hr after virus inoculation, FIG. 5) was “negligible effect”, the survival rate ([4]; FIG. 6) was “does not affect” and the body weight loss ([4]; FIG. 7) was “does not affect”. For the same compound, the protein binding [5] was over 99.5%, the “ILD/pneumonitis reported in patients in the clinical trials” value (patients; clinical trials) was 0.1% and the “patients who developed a pneumothorax” value (patients; randomized RCC trial) was “[t]wo of 290”. For the same compound, the “pneumothorax occurrence in patients treated” value (patients; randomized STS trial (8/240)) was 3%, the “affinity as p47phox substrate-specific inhibitor for MAP3K2 and 3” value (MAP3K2/MAP3K3 [6]) was “low nanomolar” and the ROS levels (neutrophils) was “elevates ROS levels”. The bioavailability [7] was 14-21% and the half-life [7] was 30.9 to 31.9 h.
In the case of `COC(=O)c1ccc2c(c1)NC(=O)/C2=C(\Nc1ccc(N(C)C(=O)CN2CCN(C)CC2)cc1)c1ccccc1` [nintedanib, Methyl (3Z)-3-{[(4-{methyl[(4-methylpiperazin-1-yl)acetyl]amino}phenyl)amino](phenyl)methylidene}-2-oxo-2,3-dihydro-1H-indole-6-carboxylate], the “reduction of ALI in mouse models” value (mouse ALI models [8]) is listed as “reduce ALI”, the “inhibition of MAP3K2/MAP3K3-mediated phosphorylation of p47phox” value (MAP3K2/MAP3K3 [1]) is listed as “also inhibits” and the protein binding [5] is listed as 97.8%. For the same compound, the half-life [7] was 10 to 15 h.
